Legend:
dopamine receptors [1] = assay: Test 3 Inhibition of p-chloroamphetamine hyperactivity; type: in vivo, mice; settings: for ED50, inhibition of pCA induced hyperactivity: Table 2, mice
Procedure: Test 3 Inhibition of p-chloroamphetamine hyperactivity
C=mean activity of control groups 10-30 minutes post pCA.
T=mean activity of treated groups 10-30 minutes post pCA.
This test is used as an in vivo screen for detection of 5-hydroxytryptamineuptake inhibitors.

dopamine receptors [2] = assay: Dopamine antagonism, overall statement on Tests 1, 2 and 3; settings: for antagonist activity at dopaminergic reception (in words): results of Table 2, Tests 1 and 3, 50 mg/kg for Examples 6 and 7
dopamine receptors [3] = assay: Test 1 Inhibition of Amphetamine Induced Stereotypy; type: in vivo, rats; settings: for ED50, inhibition of amphetamine induced stereotypy: rats
Text: Test 1 Inhibition of Amphetamine Induced Stereotypy

[4] = Test 5 Increase in Fall Rate From Revolving Drum (ability to induce extrapyramidal effects); type: in vivo, mice; settings: for TD50 at 1 h: mouse, in vivo, po, mice, one hour after dosing, dose inducing fall rate half of maximum theoretically possible, read-out: ED50, increase in fall rate from revolving drum
Procedure: Test 5 Increase in Fall Rate From Revolving Drum
Groups of 8 mice were trained to walk on a slowly revolving horizontal drum prior to dosing with various concentrations of the test drugs or vehicle. An hour later the mice were replaced on the drum and the number of times each animal fell during the following 3 minutes was noted (mice were replaced immediately after each fall). […] The doses shown are those calculated to induce a fall rate half that of the maximum theoretically possible.

dopamine receptors [5] = assay: Test 2 Inhibition of Apomorphine Induced Climbing; type: in vivo, mice; settings: Table I; for ED50, inhibition of apomorphine induced climbing: mice, compound one hour before 10 mg/kg apomorphine, dose reducing climbing score by 50%
[6] = Test 4 Increase in Halothane Induced Sleep Time (sedative potential); type: in vivo, mice; settings: for ED50, increase in halothane induced sleep time: mice, one hour before 3% halothane, dose increasing duration of loss of righting reflex by 50%
Procedure: Test 4 Increase in Halothane Induced Sleep Time
Groups of 6 mice received the test compounds or the requisite volume of vehicle p.o. one hour before being placed in a perspex container. A gas mixture containing 3% halothane in oxygen was passed through this container for 5 minutes. Next the mice were removed and placed on their backs and the latency to the restoration of the righting reflex noted.
The doses shown are those calculated to increase the duration of halothane induced loss of righting reflex by 50%.

[7] = Table I, compound one hour before 5 mg/kg d-amphetamine

| Compound | ED50, inhibition of pCA induced hyperactivity (dopamine receptors [1]; 20 mg/kg pCA ip) [mg/kg p.o.] | antagonist activity at dopaminergic reception (in words) (dopamine receptors [2]) | ED50, inhibition of amphetamine induced stereotypy (dopamine receptors [3]; Table 2, 5 mg/kg d-amphetamine) [mg/kg p.o.] | TD50 at 1 h ([4]; Table I) [mg/kg] | ED50, inhibition of apomorphine induced climbing (dopamine receptors [5]) [mg/kg p.o.] | ED50, increase in halothane induced sleep time ([6]; Table I) [mg/kg p.o.] | ED50, inhibition of amphetamine induced stereotypy (dopamine receptors [3]; [7]) [mg/kg p.o.] | other results |
| --- | --- | --- | --- | --- | --- | --- | --- | --- |
| OC1(c2ccc(Cl)cc2)CCN(CCc2c[nH]c3ccccc23)CC1 [Example 7, 1-(2-(Indol-3-yl)ethyl)-4-(p-chlorophenyl)-4-hydroxypiperidine, reference compound] | > 50 | neither of the compounds of Examples 6 and 7 posses significant antagonist activity | > 50 | – | – | – | – | – |
| OC1(c2ccccc2)CCN(Cc2c[nH]c3ccccc23)CC1 [Example 2, 1-(Indol-3-ylmethyl)-4-hydroxy-4-phenylpiperidine] | 32.6 | both show activity | – | – | – | – | – | – |
| OC1(c2ccccc2)CCN(CCc2c[nH]c3ccccc23)CC1 [Example 6, 1-(2-(Indol-3-yl)ethyl)-4-hydroxy-4-phenylpiperidine, reference compound] | > 50 | neither of the compounds of Examples 6 and 7 posses significant antagonist activity | > 50 | – | – | – | – | – |
| OC1(c2ccc(Cl)cc2)CCN(Cc2c[nH]c3ccccc23)CC1 [Example 1, 1-(Indol-3-ylmethyl)-4-hydroxy-4-(p-chlorophenyl)piperidine] | 10 | both show activity | 25 | 50 | 20 | 200 | 25 | A/B (ED50 Example 1 / ED50 Haloperidol), fall rate from revolving drum ([4]; Table I, ratio to haloperidol): 56; unwanted extrapyramidal effects compared with haloperidol (in words) ([4]; versus haloperidol): exhibits an advantage with regard to unwanted extrapyramidal effects; A/B (ED50 Example 1 / ED50 Haloperidol), apomorphine induced climbing (dopamine receptors [5]; ratio to haloperidol): 40; A/B (ED50 Example 1 / ED50 Haloperidol), halothane induced sleep time ([6]; Table I, ratio to haloperidol): 1000; selectivity ratio ([6]; mouse, in vivo, po, ratio of Test 4 dose to doses in Tests 1-3, read-out: dose prolonging halothane-induced sleep relative to doses required to inhibit dopaminergic responses): 8 to 20; sedative potential compared with haloperidol (in words) ([6]; versus haloperidol): lower than that of haloperidol; A/B (ED50 Example 1 / ED50 Haloperidol), p-chloro amphetamine hyperactivity (dopamine receptors [1]; Table I, ratio to haloperidol): 33; dopamine antagonist potency compared with haloperidol (in words) (dopamine receptors [2]; Tests 1, 2 and 3, versus haloperidol): less potent dopamine antagonist than haloperidol; relative potency of Examples 1 and 2 (in words) (dopamine receptors [2]; results of Table 2, Example 1 versus Example 2): the more potent; A/B (ED50 Example 1 / ED50 Haloperidol), amphetamine induced stereotypy (dopamine receptors [3]; Table I, ratio to haloperidol): 36 |
| O=C(CCCN1CCC(O)(c2ccc(Cl)cc2)CC1)c1ccc(F)cc1 [Haloperidol, haloperidol, reference compound] | – | – | – | 0.9 | 0.5 | 0.2 | 0.7 | dose prolonging halothane-induced sleep compared with doses inhibiting dopaminergic responses (in words) ([6]; Test 4 versus Tests 1-3): prolongs halothane-induced sleep at doses lower than those required to ihibit dopaminergic responses; ED50, inhibition of p-chloro amphetamine hyperactivity (dopamine receptors [1]; Table I, female mice, 20 mg/kg pCA ip, activity 10-30 minutes post pCA): 0.3 mg/kg p.o. |
